Assay results published in ChEMBL document CHEMBL1143375 (Bioorg Med Chem Lett, 2009).

Experiments:
[1] = molecular target: T1, Prostaglandin G/H synthase 1 (Ovis aries, UniProt P05979)
T1 sequence (P05979 whole entry): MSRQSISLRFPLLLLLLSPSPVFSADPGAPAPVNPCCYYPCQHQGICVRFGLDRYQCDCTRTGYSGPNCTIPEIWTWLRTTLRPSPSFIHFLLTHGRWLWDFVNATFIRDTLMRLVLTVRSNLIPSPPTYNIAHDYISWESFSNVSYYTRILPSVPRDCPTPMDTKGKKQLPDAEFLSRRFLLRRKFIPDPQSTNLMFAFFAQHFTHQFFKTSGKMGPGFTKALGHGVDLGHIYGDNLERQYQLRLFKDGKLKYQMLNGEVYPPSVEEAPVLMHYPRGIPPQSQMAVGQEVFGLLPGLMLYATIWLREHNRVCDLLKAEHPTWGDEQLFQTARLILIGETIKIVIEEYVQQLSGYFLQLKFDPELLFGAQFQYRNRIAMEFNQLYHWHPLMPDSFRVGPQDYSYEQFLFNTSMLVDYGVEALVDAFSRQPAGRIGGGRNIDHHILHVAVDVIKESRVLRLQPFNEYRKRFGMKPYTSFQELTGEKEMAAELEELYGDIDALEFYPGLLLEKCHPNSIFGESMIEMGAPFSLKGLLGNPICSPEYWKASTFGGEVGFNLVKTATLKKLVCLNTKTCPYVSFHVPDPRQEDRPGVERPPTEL
Description: Inhibition of ovine COX1 by enzyme immuno assay

[2] = molecular target: T2, Prostaglandin G/H synthase 2 (Homo sapiens, UniProt P35354); assay: Inhibition of human recombinant COX2 by enzyme immuno assay
T2 sequence (P35354 whole entry): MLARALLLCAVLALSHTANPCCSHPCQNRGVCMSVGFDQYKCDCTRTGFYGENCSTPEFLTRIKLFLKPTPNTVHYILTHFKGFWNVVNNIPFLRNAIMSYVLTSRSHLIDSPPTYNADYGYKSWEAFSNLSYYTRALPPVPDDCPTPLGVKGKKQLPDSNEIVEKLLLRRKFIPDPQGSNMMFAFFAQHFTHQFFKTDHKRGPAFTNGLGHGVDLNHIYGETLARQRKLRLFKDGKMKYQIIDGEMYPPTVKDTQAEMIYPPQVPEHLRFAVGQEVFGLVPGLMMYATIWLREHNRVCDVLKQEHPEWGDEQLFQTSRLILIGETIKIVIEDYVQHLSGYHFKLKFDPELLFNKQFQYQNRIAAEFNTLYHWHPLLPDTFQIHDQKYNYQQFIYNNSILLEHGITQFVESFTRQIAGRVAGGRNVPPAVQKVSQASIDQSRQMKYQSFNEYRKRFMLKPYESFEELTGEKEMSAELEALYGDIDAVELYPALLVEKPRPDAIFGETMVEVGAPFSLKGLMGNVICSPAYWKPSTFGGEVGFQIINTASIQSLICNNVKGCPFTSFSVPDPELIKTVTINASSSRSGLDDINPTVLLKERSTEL

Rattus norvegicus = assay: Antiinflammatory activity in orally dosed rat assessed as inhibition of carrageenan-induced paw edema after 3 hrs; assay type: functional; details: po
[3] = Inhibition of potato LOX5; design: species or system Solanum tuberosum

Row | IC50 [1] [µM] | IC50 [2] [µM] | IC50 [3] [µM] | Structure (SMILES) | ED50 (Rattus norvegicus) [mg/kg]
1 | 14.1 | 5.1 | 3.3 | CS(=O)(=O)c1ccc(C#Cc2ccc(=O)n(C(F)F)c2)cc1 | 68.5
2 | 32.4 | 3.7 | 3.2 | CS(=O)(=O)c1cccc(C#Cc2ccc(=O)n(C(F)F)c2)c1 | 66.1
3 | > 100 | 9.4 | 3.4 | CS(=O)(=O)c1ccccc1C#Cc1ccc(=O)n(C(F)F)c1 | > 100

Continued, compound first:

Row | Structure (SMILES) | IC50 [1] [µM] | IC50 [2] [µM] | IC50 [3] [µM] | ED50 (Rattus norvegicus) [mg/kg]
4 | NS(=O)(=O)c1ccc(C#Cc2ccc(=O)n(C(F)F)c2)cc1 | 5.2 | 6 | 3.5 | 86.5
5 | CC(=O)Oc1ccccc1C(=O)O [ASPIRIN] | – | – | – | 129
6 | O=C(O)/C=C/c1ccc(O)c(O)c1 [CAFFEIC ACID] | – | – | 4 | –
7 | CC(C)Cc1ccc(C(C)C(=O)O)cc1 (centres undefined) [IBUPROFEN] | – | – | – | 67.4
